# Test system: purified human astrocytes
# Test: Calcium imaging of purified human astrocytes (Fluo-4 AM) after ATP or glutamate stimulation
# Assay type: cell-based
# Details: for calcium response (increased intracellular calcium concentrations): 30 nM-670 μM
# Experimental: Therefore, we performed calcium imaging on purified human astrocytes after loading cells grown in vitro with the calcium sensitive dye Fluo-4 AM.
# Calcium imaging. Purified human astrocytes were plated at 100,000 cells/imaging chamber (MatTek, P35GC-1.0-14-C) coated with poly-d-lysine. Cells were grown for at least 5 days before imaging. Cells were incubated for 15 minutes with 2 μM Fluo 4 AM (Invitrogen, F-14201) and then washed 3 times with PBS and replaced with 1.5 ml of growth medium per chamber. The cells were then let to recover from mechanical stimulation for 3 minutes and then imaged in a humidified, temperature-controlled chamber with a 40× oil objective. Images were taken at 0.7 s intervals and analyzed with ImageJ.
Structure (SMILES),calcium response (increased intracellular calcium concentrations) (fetal human astrocytes),temporal pattern of calcium response (postnatal human astrocytes),calcium response (increased intracellular calcium concentrations) (postnatal human astrocytes),"time for intracellular calcium to decrease to baseline levels (postnatal human astrocytes, independent of concentration) [s]"
Nc1ncnc2c1ncn2[C@@H]1O[C@H](COP(=O)(O)OP(=O)(O)OP(=O)(O)O)[C@@H](O)[C@H]1O [ATP],responded,asynchronous oscillatory response,responded to both,
N[C@@H](CCC(=O)O)C(=O)O [glutamate],,synchronous non-oscillatory response,responded to both,≤ 10
